Laboratory results: US9624238B2, “4H-thieno[3,2-C]chromene-based inhibitors of Notum Pectinacetylesterase and methods of their use” (Lexicon Pharmaceuticals, Inc., priority 2011, dated 2017)

Assays:
[1] = target: T1, human notum pectinacetyltransferase (Homo sapiens, UniProt Q6P988); assay: Reporter assay (CellSensor LEF/TCF-bla FreeStyle 293F cells, Wnt3a and notum conditioned media); type: cell-based
T1 construct: made in house; unpurified conditioned medium used
T1 sequence (Q6P988 20-496): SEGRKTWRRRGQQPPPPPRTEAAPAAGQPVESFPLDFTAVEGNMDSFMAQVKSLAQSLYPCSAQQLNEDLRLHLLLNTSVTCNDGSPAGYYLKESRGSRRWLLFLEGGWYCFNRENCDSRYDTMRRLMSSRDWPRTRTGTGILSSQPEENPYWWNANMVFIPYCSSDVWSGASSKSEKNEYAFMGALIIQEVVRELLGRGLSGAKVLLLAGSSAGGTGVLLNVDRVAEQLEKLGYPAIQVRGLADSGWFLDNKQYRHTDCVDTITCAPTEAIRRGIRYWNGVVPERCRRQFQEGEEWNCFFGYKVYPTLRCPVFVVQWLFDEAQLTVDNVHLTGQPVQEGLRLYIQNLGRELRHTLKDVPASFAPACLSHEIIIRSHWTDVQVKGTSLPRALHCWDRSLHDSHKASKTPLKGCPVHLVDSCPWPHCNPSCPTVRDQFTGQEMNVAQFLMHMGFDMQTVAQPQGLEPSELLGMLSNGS
Method: Plasmid containing human notum pectinacetyltransferase in pcDNA3.1(+) vector was transfected into HEK (293 cells and clones were selecting by growing in presence of 400 ug/mL of G418. The clone containing highest expression of human notum pectinacetyltransferase in the conditioned media was maintained for all future activity assays. L cells overexpressing and secreting Wnt3a into the conditioned media were purchased from ATCC.
The assay protocol was as follows. […] The cell growth medium consisted of DMEM with 10% Dialyzed FBS, 5 μg/ml Blasticidin (Invitrogen, R210-01), 0.1 mM NEAA, 25 mM HEPES and 1×GPS. Cells were then trypsinized by first rinsing with PBS, followed by addition of 5 mL of trypsin and incubation of plates at room temperature for two minutes. A total of 10 mL of assay media (Opti-MEM, plus 0.5% dialyzed FBS, 0.1 mM NEAA, 1 mM sodium pyruvate, 10 mM HEPES, 1×GPS) was then added per 15 cm plate. Cells were counted and suspended at 0.75 million cells per mL. […] After incubation of cells at 37° C. for 3 hours, 10 μL of 30 mM LiCl in assay medium was added per well, followed by incubation at 37° C. for another 3 hours. […] Ten μL of the Wnt3a/notum pentinacetyltransferase mixture was then transferred from Greiner plates to each well of the 384-well plates containing the CellSensor cells.

[2] = target: T1, human notum pectinacetyltransferase; assay: Binding assay (OPTS esterase substrate, fluorimetric); type: biochemical
Method: Plasmid containing human notum pectinacetyltransferase in pcDNA3.1(+) vector was transfected into HEK (293 cells and clones were selecting by growing in presence of 400 ug/mL of G418. Condition media from these cells was used for the assay.

[3] = given as numeric bound above the legend's highest class
[4] = given as a numeric bound above the legend's range

Structure (SMILES) | EC50 ([1]; class symbols) [nM] | IC50 ([2]; class symbols) [nM] | other results
CCOC(=O)c1cc2c(s1)-c1ccc(OC)cc1CC2 [ethyl 7-methoxy-4,5-dihydronaphtho[1,2-b]thiophene-2-carboxylate] | < 500 |  | IC50 [2, 3]: > 2000 nM
N#CC1CCN(C(=O)c2cc3c(s2)-c2cccc(F)c2CC3)C1 (stereo not drawn) | < 50 | < 100 | 
NC(=O)c1cc2c(s1)-c1c(F)ccc(Cl)c1OC2 | < 50 | < 50 | 
NC(=O)c1cc2c(s1)-c1ccc(Cl)cc1OC2 | < 50 | < 100 | 
O=C(O)c1cc2c(s1)-c1cccc(F)c1OC2 [6-fluoro-4H-thieno[3,2-c]chromene-2-carboxylic acid] | < 50 | < 1000 | 
COc1cccc2c1CCc1cc(C(=O)O)sc1-2 | < 50 |  | IC50 [2, 3]: > 2000 nM
Cc1c(F)ccc2c1OCc1cc(C(=O)O)sc1-2 | < 50 | < 1000 | 
O=C(O)c1cc2c(s1)-c1cc(F)cc(F)c1S(=O)(=O)C2 [6,8-difluoro-4H-thieno[3,2-c]thiochromene-2-carboxylic acid 5,5-dioxide] | < 500 | < 1000 | 
O=C(c1cc2c(s1)-c1cc(Cl)cc(F)c1OC2)N1CCC(F)C1 (stereo not drawn) | < 50 | < 1000 | 
NC(=O)c1cc2c(s1)-c1cc(Cl)c(C(F)(F)F)cc1OC2 | < 500 |  | IC50 [2, 4]: > 2000 nM
CCOC(=O)c1cc2c(s1)-c1cc(OC)ccc1CC2 |  |  | EC50 [1, 3]: > 1000 nM; IC50 [2, 3]: > 2000 nM
COC(C)(C)CNC(=O)c1cc2c(s1)-c1ccc(Cl)c(F)c1OC2 | < 500 |  | IC50 [2, 3]: > 2000 nM
Cc1ccc2c(c1)-c1sc(C(=O)O)cc1CO2 | < 50 | < 1000 | 
NC(=O)c1cc2c(s1)-c1cc(Cl)ccc1SC2 | < 50 | < 1000 | 
NC(=O)c1cc2c(s1)-c1cc(F)c(Cl)cc1SC2 | < 50 | < 100 | 
COc1ccc2c(c1)OCc1cc(C(=O)O)sc1-2 | < 100 | < 2000 | 
CNc1ccc2c(c1)CCc1cc(C(=O)O)sc1-2 | < 50 | < 2000 | 
NC(=O)c1cc2c(s1)-c1cc(F)c(F)cc1OC2 | < 50 | < 100 | 
N#CCNC(=O)c1cc2c(s1)-c1ccccc1CC2 | < 50 | < 50 | 
COc1ccc2c(c1Cl)CCc1cc(C(=O)N3CCC(OC)C3)sc1-2 (stereo not drawn) | < 50 | < 50 | 
NC(=O)c1cc2c(s1)-c1cc(F)ccc1OC2 | < 50 | < 50 | 
NC(=O)c1cc2c(s1)-c1ccccc1SCC2 | < 50 | < 50 | 
O=C(O)c1cc2c(s1)-c1cc(F)c(Cl)cc1S(=O)(=O)C2 | < 50 | < 2000 | 
NC(=O)c1cc2c(s1)-c1ccc(Cl)c(F)c1SC2 | < 50 | < 50 | 
O=C(O)c1cc2c(s1)-c1cc(F)cc(F)c1OC2 | < 50 | < 50 | 

Structure (SMILES) | EC50 ([1]; class symbols) [nM] | IC50 ([2]; class symbols) [nM] | other results
COc1ccccc1C1CN(C(=O)c2cc3c(s2)-c2ccc(Cl)c(F)c2OC3)CC1C(=O)O (stereo not drawn) | < 50 | < 1000 | 
O=C(O)c1cc2c(s1)-c1cc(F)ccc1S(=O)(=O)C2 | < 50 | < 1000 | 
CNC(=O)c1cc2c(s1)-c1ccccc1CC2 | < 50 | < 100 | 
CCCNC(=O)c1cc2c(s1)-c1ccccc1CC2 | < 500 | < 100 | 
NC(=O)c1cc2c(s1)-c1cccc(Cl)c1CC2 | < 50 | < 1000 | 
O=C(NO)c1cc2c(s1)-c1ccccc1CC2 | < 50 | < 50 | 
N#CCCNC(=O)c1cc2c(s1)-c1cccc(F)c1CC2 | < 100 | < 100 | 
O=C(NCCN1CCCCC1)c1cc2c(s1)-c1ccccc1CC2 | < 1000 | < 1000 | 
CN(C)C(=O)c1cc2c(s1)-c1ccccc1CC2 | < 50 | < 1000 | 
CN(C)c1ccc2c(c1)CCc1cc(C(=O)O)sc1-2 | < 500 | < 2000 | 
CC1Cc2cc(C(N)=O)sc2-c2cc(F)c(F)cc21 (stereo not drawn) | < 50 | < 50 | 
CCOC(=O)c1cc2c(s1)-c1ccc(C)c([N+](=O)[O-])c1CC2 | < 50 | < 100 | 
COC(=O)CNC(=O)c1cc2c(s1)-c1cc(C)cc(C)c1CC2 | < 100 | < 2000 | 
COc1ccc2c(c1F)CCc1cc(C(N)=O)sc1-2 | < 50 | < 100 | 
Cc1cc2c(cc1F)-c1sc(C(=O)O)cc1CS2 | < 50 | < 100 | 
NC(=O)c1cc2c(s1)-c1cccc(Cl)c1SC2 | < 50 | < 1000 | 
COc1ccc2c(c1Cl)CCc1cc(C(N)=O)sc1-2 | < 50 | < 50 | 
N#Cc1ccc2c(c1)OCc1cc(C(N)=O)sc1-2 |  |  | EC50 [1, 4]: > 1000 nM; IC50 [2, 4]: > 2000 nM
O=C(c1cc2c(s1)-c1c(F)ccc(F)c1SC2)N1CC[C@H](F)C1 | < 50 | < 100 | 
NC(=O)c1cc2c(s1)-c1c(F)ccc(F)c1SC2 [6,9-difluoro-4H-thieno[3,2-c]thiochromene-2-carboxamide] | < 50 | < 50 | 
NC(=O)c1cc2c(s1)-c1c(cc(F)c(F)c1F)OC2 | < 50 | < 50 | 
NC(=O)c1cc2c(s1)-c1cc(F)ccc1CCC2 | < 50 | < 50 | 
O=C(O)C1CN(C(=O)c2cc3c(s2)-c2ccc(Cl)c(Cl)c2OC3)CC1c1ccccc1F (racemic) | < 50 | < 50 | 
O=C(O)c1cc2c(s1)-c1cc(Cl)cc(Br)c1OC2 | < 50 | < 1000 | 
NC(=O)c1cc2c(s1)-c1cc(Cl)ccc1OCC2 | < 100 | < 100 | 

Structure (SMILES) | EC50 ([1]; class symbols) [nM] | IC50 ([2]; class symbols) [nM] | other results
COc1ccc2c(c1Cl)CCc1cc(C(=O)N3CCC(F)C3)sc1-2 (stereo not drawn) | < 50 | < 50 | 
O=C(O)c1cc2c(s1)-c1ccc(C(F)(F)F)cc1OC2 | < 50 | < 1000 | 
O=C(NCc1ncco1)c1cc2c(s1)-c1cccc(F)c1CC2 | < 50 | < 100 | 
CCC1Cc2cc(C(N)=O)sc2-c2c(F)ccc(F)c21 (stereo not drawn) | < 50 | < 50 | 
Cc1cc(C)c2c(c1)-c1sc(C(N)=O)cc1CC2 [6,8-dimethyl-4,5-dihydronaphtho[1,2-b]thiophene-2-carboxamide] | < 50 | < 1000 | 
O=C(NCCO)c1cc2c(s1)-c1ccccc1CC2 [N-(2-hydroxyethyl)-4,5-dihydronaphtho[1,2-b]thiophene-2-carboxamide] | < 50 | < 1000 | 
O=C(c1cc2c(s1)-c1cc(F)cc(F)c1SC2)N1CCC(O)C1 (stereo not drawn) | < 50 | < 50 | 
N#Cc1ccc2c(c1)CCc1cc(C(=O)O)sc1-2 | < 1000 |  | IC50 [2, 3]: > 2000 nM
CC1(C)Cc2cc(C(=O)O)sc2-c2ccc(Cl)cc21 | < 50 | < 2000 | 
O=C(O)c1cc2c(s1)-c1ccc(F)c(F)c1OC2 | < 50 | < 1000 | 
CC1Cc2ccccc2-c2sc(C(=O)O)cc21 (stereo not drawn) | < 50 | < 2000 | 
O=C(O)c1cc2c(s1)-c1ccc(Cl)c(F)c1OC2 | < 50 | < 100 | 
O=C(O)c1cc2c(s1)-c1cc(Cl)c(Cl)cc1CC2 | < 50 | < 100 | 
CC1Cc2cc(C(N)=O)sc2-c2ccc(Cl)cc21 (stereo not drawn) | < 50 | < 100 | 
CCOC(=O)c1cc2c(s1)-c1ccccc1CC2 | < 50 | < 2000 | 
CC(C)c1ccc2c(c1)-c1sc(C(=O)O)cc1CO2 | < 100 |  | IC50 [2, 4]: > 2000 nM
O=C(O)c1cc2c(s1)-c1cc(F)ccc1CCC2 | < 1000 | < 1000 | 
Cc1cc(C)c2c(c1)OCc1cc(C(N)=O)sc1-2 | < 50 | < 2000 | 
O=C(c1cc2c(s1)-c1cccc(F)c1CC2)N1CCC(F)C1 (stereo not drawn) | < 50 | < 1000 | 
O=C(O)c1cc2c(s1)-c1ccc(Cl)cc1OC2 | < 50 | < 100 | 
N#Cc1cc2c(cc1F)OCc1cc(C(=O)O)sc1-2 | < 100 |  | IC50 [2, 4]: > 2000 nM
NC(=O)c1cc2c(s1)-c1cc(F)cc(F)c1SC2 | < 50 | < 50 | 
Cc1ccc2c(c1[N+](=O)[O-])CCc1cc(C(=O)O)sc1-2 | < 50 | < 50 | 
CC1Cc2cc(C(=O)O)sc2-c2cc(F)cc(F)c21 (stereo not drawn) | < 50 | < 50 | 
COc1cccc2c1OCc1cc(C(=O)O)sc1-2 | < 500 |  | IC50 [2, 4]: > 2000 nM
